The text below walks through data of US20070225268A1, “METHOD TO TREAT NEOPLASMS VIA GADOLINIUM STEREOTACTIC SYNCHROTRON RADIATION” (priority 2005, published 2007).

Data set [1] concerns glioblastoma multiforme cell nuclei. Briefly: In vivo biodistribution of Gd-DTPA in glioblastoma multiforme patients (ICP-MS, spectromicroscopy). Further details: species or system human. The settings on record: six glioblastoma multiforme patients injected with Gd-DTPA before tumor excision. From the text: The present inventors also tested the in vivo biodistribution of Gd-DTPA in six glioblastoma multiforme patients injected with Gd-DTPA before tumor excision. The tumors were frozen and sectioned for ICP-MS and Microscope à Emission de Photoélectrons par Illumination Synchrotronique de Type Onduleur analysis. Evidence for Gd intracellular localization was found within the tumors in all six cases. However, the gadolinium localized in only 6.1% of the cell nuclei analyzed.

For data set [2], the system named is F98 brain glioma. The conditions noted are these: intracranial infusion one day before 78.8 keV photons, 15 Gy single dose; cited from earlier work.
Data set [3] concerns TB10 cells. Briefly: X-PEEM (SPHINX) spectromicroscopy of intranuclear Gd. The format is cell-based, human. The protocol: (§1) Cell Culture and Exposure to Motexafin Gadolinium: Four well-established human glioblastoma multiforme cell lines were used for the in vitro studies: T98G (22), U87 (23), MO59K (24), and TB10 (9, 25). Cells were grown on precut 10 mm×10 mm silicon wafers (Silson, Northhampton, United Kingdom) for X-PEEM spectromicroscopy; on 1 mm×1 mm Si3N4 windows, 100 nm thick (Silson) for STXM spectromicroscopy; on tissue culture-treated polystyrene slides for confocal microscopy; and in Petri dishes for ICP-MS analysis. Subconfluent cultures were exposed to motexafin gadolinium (Pharmacyclics, Sunnyvale, Calif.), formulated at 2.3 mg/mL in 5% aqueous mannitol, and added to the culture medium to a final concentration of 100 μmol/L. Six different exposure times ranging from 0 to 72 hours were used for the ICP-MS time course measurements. For all microscopy experiments exposure times were kept constant at 72 hours. The cell appearance was not altered by motexafin gadolinium exposure.
(§2) After exposure to motexafin gadolinium, the cell cultures on Si substrates for X-PEEM analysis were washed three times with PBS solution to remove free Gd, fixed in 4% paraformaldehyde in PBS for 20 minutes, double-washed in Milli-Q-water, and air dried. At this point, some cell cultures were sputtered with 3-kV argon ions at 10^−5 Torr for 10 minutes; others were not. Sputtering removes the topmost portion of the cell to reveal the inner nuclear compartment of fixed cells (26). Sputtered and unsputtered cells were then ashed in UV/O3 for 140 hours (27). […]
X-PEEM Spectromicroscopy Analysis: X-PEEM spectromicroscopy analysis was done using the Spectromicroscope for Photoelectron Imaging of Nanostructures with X-rays (SPHINX) instrument (Elmitec GmbH, Clausthal, Germany), installed on the HERMON beamline at the Synchrotron Radiation Center (Madison, Wis.). […] Cell and tissue ashing increases gadolinium concentration by a factor of 10; therefore, the detection limit was on the order of ≦100 ppm in all cells analyzed. […]

Data set [4] deals with MO59K cells. Briefly: STXM spectromicroscopy of intranuclear Gd. The settings on record: 27 MO59K cells, 100 μmol/L, 72 hours. Type of data set: cell-based, human. The protocol: as §1
as §2, with “(27). Parallel cultures were run and treated identically for ICP-MS measurements of the bulk Gd concentration. Cell cultures for STXM analysis on Si3N4 windows, after motexafin gadolinium exposure, were washed, fixed, washed, and air-dried.” for “(27).”
(§3) STXM Spectromicroscopy Analysis: The STXM instrument on beamline 11.0.2 at the Advanced Light Source in Berkeley uses an undulator source and is optimized for the Gd3d absorption energy. […] Three cell cultures were analyzed, containing 34 T98G cells, 27 MO59K cells, and 139 TB10 cells, respectively. […]

For data set [5], the system named is T98G cells. The data set is described as follows: STXM spectromicroscopy of intranuclear Gd. The format is cell-based, human. The conditions noted are these: 34 T98G cells, 100 μmol/L, 72 hours. On the procedure: as §1
as §2, with “(27). Parallel cultures were run and treated identically for ICP-MS measurements of the bulk Gd concentration. Cell cultures for STXM analysis on Si3N4 windows, after motexafin gadolinium exposure, were washed, fixed, washed, and air-dried.” for “(27).”
as §3

Data set [6] relates to TB10 cells. Briefly: STXM spectromicroscopy of intranuclear Gd. The format is cell-based, human. The settings on record: 139 TB10 cells, 100 μmol/L, 72 hours. On the procedure: as §1
as §2, with “(27). Parallel cultures were run and treated identically for ICP-MS measurements of the bulk Gd concentration. Cell cultures for STXM analysis on Si3N4 windows, after motexafin gadolinium exposure, were washed, fixed, washed, and air-dried.” for “(27).”
as §3

The test system of data set [7] is T98G, MO59K and TB10 cells. The data set is described as follows: STXM spectromicroscopy of intranuclear Gd, all cells analyzed. The format is cell-based, human. The settings on record: overall, n=200. The protocol:
as §1, with “exposure. […]” for “exposure.”
as §3

Data set [8] has as its system TB10, MO59K and T98G cells. Briefly: Confocal fluorescence microscopy of motexafin gadolinium-related fluorescence. The format is cell-based, human. The conditions noted are these: n=481, 100 μmol/L, 72 hours. The protocol: Cell Culture and Exposure to Motexafin Gadolinium: Four well-established human glioblastoma multiforme cell lines were used for the in vitro studies: T98G (22), U87 (23), MO59K (24), and TB10 (9, 25). Cells were grown on precut 10 mm×10 mm silicon wafers (Silson, Northhampton, United Kingdom) for X-PEEM spectromicroscopy; on 1 mm×1 mm Si3N4 windows, 100 nm thick (Silson) for STXM spectromicroscopy; on tissue culture-treated polystyrene slides for confocal microscopy; and in Petri dishes for ICP-MS analysis. […]
Confocal Microscopy: Three of the four cell lines (TB10, MO59K, and T98G) were analyzed using a Bio-Rad (Richmond, Calif.) MRC 1024ES confocal microscope. This instrument can simultaneously measure the fluorescence from three channels, with excitation wavelengths from the three lines of a krypton/argon laser and emission through three independent barrier filters. […]
The aperture was set for minimal optical section thickness, and laser power and photodetector gain were set to image cell fluorescence within the 8-bit grayscale range of the photodetector. Five consecutive optical sections were obtained vertically through the cells to verify that motexafin gadolinium fluorescence originated from the nucleus and not only from the cytoplasm above or below the nucleus.

Data set [9] is described as follows: ICP-MS of Gd in tissue and plasma of glioblastoma multiforme patients. Type of data set: in vivo, human. On the procedure:
Tissue samples from three glioblastoma multiforme patients were also analyzed with ICP-MS (Table 1). These were collected from glioblastoma multiforme tissue and plasma for patients 1 and 2, and from tumor necrotic and uninvolved brain areas for the postmortem patient 3. All gadolinium concentrations were normalized to the measured tissue weight and volume. […]

Data set [10] concerns human glioblastoma multiforme cell lines. Briefly: Cell appearance after exposure in culture. Type of data set: cell-based. The conditions noted are these: 100 μmol/L, up to 72 hours. The protocol: as §1

“And” between values parts separate entries of the source, which are not always exact repeats. Identical values can stand only once.

For the compound `O=C([O-])CN(CCN(CC(=O)[O-])CC(=O)O)CCN(CC(=O)[O-])CC(=O)O.[Gd+3]` [Gd-DTPA, gadolinium diethylenetriaminepentaacetic acid], the “percentage of cell nuclei analyzed in which gadolinium localized” value in [1] came out at 6.1%.
Regarding `N.N.[Cl][Pt][Cl]` [cis-platinum], in data set [2], the “survival rate at one year” value is 34%.
For motexafin gadolinium, the “percentage of Gd-containing nuclei” value in data set [3] (TB10, after sputtering (72 cells)) was 88%; in data set [3] (TB10, before sputtering (unsputtered, 108 cells)), 92%. In addition, the “percentage of cells with at least one gadolinium pixel in the nucleus” value in data set [3] (TB10, n=180, 100 μmol/L, 72 hours) is given as 90%. For the same compound, the “percentage of cells containing gadolinium in their nuclei” value in data set [4] was found to be 96%; in data set [5], 90%; in data set [6] it was 88%. Besides, the “percentage of cells with at least one gadolinium pixel in their nuclei” value in data set [7] is on record as 90%. Moreover, the “percentage of cells exhibiting motexafin gadolinium-related fluorescence in cytoplasm and nuclei” value in data set [8] was 100%. Also, the “[Gd]” value was found to be 3.415 ppm in data set [9] (Patient 1, Plasma, 2:30 hrs, single dose 10 mg/kg); 12.973 ppm in data set [9] (Patient 1, Plasma, 5 min, single dose 10 mg/kg); 7.349 ppm in data set [9] (Patient 1, Plasma, 45 min, single dose 10 mg/kg); 4.079 ppm in data set [9] (Patient 1, Plasma, 3 hrs, single dose 10 mg/kg); 1.700 ppm in data set [9] (Patient 1, Plasma, 24 hrs, single dose 10 mg/kg); 7.266 ppm in [9] (Patient 1, Tumor, 2:30 hrs, single dose 10 mg/kg). Besides, the “[Gd]” value is 2.475 ppm in data set [9] (Patient 1, Tumor, 3 hrs, single dose 10 mg/kg); 6.536 ppm in [9] (Patient 2, Plasma, 1:14 hrs, single dose 10 mg/kg); 6.309 ppm in data set [9] (Patient 2, Plasma, 1:30 hrs, single dose 10 mg/kg); 14.043 ppm in data set [9] (Patient 2, Plasma, 5 min, single dose 10 mg/kg); 8.143 ppm in data set [9] (Patient 2, Plasma, 45 min, single dose 10 mg/kg); 5.109 ppm in data set [9] (Patient 2, Plasma, 3 hrs, single dose 10 mg/kg). Moreover, the “[Gd]” value was 1.770 ppm in [9] (Patient 2, Plasma, 24 hrs, single dose 10 mg/kg); 29.728 ppm in [9] (Patient 2, Tumor, 1:11 hrs, single dose 10 mg/kg); 19.580 ppm in [9] (Patient 2, Tumor, 1:18 hrs, single dose 10 mg/kg); 22.589 ppm in data set [9] (Patient 2, Tumor, 45 min, single dose 10 mg/kg); 2.144 ppm in data set [9] (Patient 3 (autopsy), Necrosis within tumor, 57 days after the last of multiple doses); 8.542 ppm and 8.022 ppm in data set [9] (Patient 3 (autopsy), Tumor, 57 days after the last of multiple doses, listed as Motexafin-Gd). Moreover, in data set [10], the cell appearance entry was “not altered”.
